# Article PMC10805311, “Pseudomonas aeruginosa two-component system CprRS regulates HigBA expression and bacterial cytotoxicity in response to LL-37 stress” (PLOS Pathogens, 2024)
# How the values were obtained:
# [1] = target: full-length CprS (CprSFL); assay: Microscale thermophoresis (MST), full-length CprS; assay type: binding, P. aeruginosa; details: 100 nM His-tag labelled CprSFL, 16 doubling dilutions from 500 μM peptide, PBST buffer, 25°C 30 min, Monolith NT.115, repeated three times, read-out: Kd (CprSFL + LL-37)
# Method: (§1) The E. coli BL21 (DE3) strains harboring pET22b-cprS and pET22b-cprR were cultured at 37°C in LB medium and suppled with 0.4 mM IPTG as the OD600 reached to 0.8. The cultures were incubated at 16°C for an additional 14 h and the cells were collected and resuspended in buffer A (20 mM tris-HCl (pH 8.0), 150 mM NaCl). The cells were lysed by ultrasound and centrifuged at 15, 000 rpm for 20 min at 4°C. Then the supernatant was applied to Ni-agarose resins and eluted with buffer containing 300 mM imidazole. As for full-length CprS, the supernatant needed to be extracted by 2% ELUGENT Detergent and flow 0.02% DDM for elution. The target proteins were further purified via AKTA purifier using buffer A and concentrated to 12 mg/mL.
# (§2) The 100 nM CprS with His-tag was labeled with Monolith His-Tag Labelling Kit RED-tris-NTA 2nd Generation Kit and the cationic peptides used in this work were diluted with PBST buffer gradient from 0.5 mM [34]. The proteins and cationic peptide dilutions were mixed and incubated at 25°C for 30 min and detected on a Monolith NT.115 instrument. The data were analyzed by NanoTemper Analysis 1.2.20 software.
# [2] = target: CprS sensor domain (CprSSD, residues 28–163); assay: Microscale thermophoresis (MST), CprS sensor domain; assay type: binding, P. aeruginosa; details: 100 nM His-tag labelled CprSSD (residues 28–163), 16 doubling dilutions from 500 μM peptide, PBST buffer, 25°C 30 min, Monolith NT.115, repeated three times, read-out: Kd (CprSSD + LL-37)
# Method: as §1, §2
# [3] = system: cprS; assay: qRT-PCR, cprS transcription; assay type: cell-based, P. aeruginosa; details: oprL as normalizer
# Method: (§3) Overnight bacterial cultures were subcultured in fresh LB medium to OD600 0.8 and the cells were collected by using Trizol. The cDNA was synthesized by using PrimeScript RT reagent Kit. 2 × SYBR qPCR Master Mix was used to perform qPCR assays. The reaction step was 2 × SYBR qPCR Master Mix (Without ROX) 10 μL, upstream Primer (10 μM) 0.4 μL, downstream Primer (10 μM) 0.4 μL, template cDNA 1 μg and ddH2O up to 20 μL. The qPCR procedure was set as: stage 1 (95°C 30 s, repeat once), stage 2 (95°C 10 s, 60°C 30 s, repeat for 40 times) and stage 3 (95°C 15 s, 60°C 1 min, 95°C 15 s, repeat 1 time). The oprL gene was used as a normalizer. The same method was used for mammalian cells, and 18 sRNA served as a normalizer.
# [4] = system: cprR; assay: qRT-PCR, cprR transcription; assay type: cell-based, P. aeruginosa; details: oprL as normalizer
# Method: as §3
# [5] = system: arnBCADTEF operon; assay: Expression of arnBCADTEF operon; assay type: cell-based, P. aeruginosa
# Method: as §3
# [6] = system: pscDEFG operon; assay: Expression of pscDEFG operon; assay type: cell-based, P. aeruginosa
# Method: as §3
# [7] = system: higB promoter; assay: β-Galactosidase reporter, higB promoter in P. aeruginosa; assay type: cell-based
# [8] = system: higB; assay: qPCR, higB mRNA; assay type: cell-based, P. aeruginosa
# Method: as §3
# [9] = system: higA; assay: Expression of higA; assay type: cell-based, P. aeruginosa; details: WT and ΔcprR or ΔcprS mutants
# Method: as §3
# [10] = system: exsA and effectors exoS, exoT, and exoU; assay: Expression of T3SS genes exsA, exoS, exoT, exoU; assay type: cell-based, P. aeruginosa; details: combined mutations of CprRS components and higB gene
# Method: as §3
# [11] = system: Raw264.7 macrophages; assay: LDH release cytotoxicity assay of infected macrophages; assay type: cell-based; details: MOI of 10, LL-37-treated WT P. aeruginosa
# Method: The Raw264.7 cells were infected with suspended bacteria at a multiplicity of infection (MOI) of 10 in antibiotic-free DMEM medium. Following incubation, the supernatant was collected and the presence of LDH was measured using the LDH cytotoxicity assay kit. The baseline level of LDH release (0% LDH release) was determined using DMEM medium. Cells treated with LDH release agent C0017-1 were used as a positive control for total release (100% LDH release). The percentage of cytotoxicity was calculated according to the instructions provided by the manufacturer.
# [12] = system: RAW264.7 macrophages (TNF-α, IL-1β, IL-8, IL-12); assay: Pro-inflammatory cytokine levels in infected macrophages; assay type: cell-based; details: 18s RNA normalizer
# Method: as §3
# [13] = system: P. aeruginosa ΔcprS; assay: Label-free quantitative proteomics of ΔcprS before and after LL-37; assay type: cell-based; details: PscE, PscH, PscJ, ExoT, PcrV, PcrH, PhzA2, PhzB2, PhzF1, FilF, PigA, HsbA; before vs after LL-37
# Method: Protein was collected, reduced, and alkylated from WT, ΔcprS, ΔcprR, ΔcprSΔhigB, and ΔcprSΔhigB strains as reported. The total purified peptides were solubilized in 20 μL of 0.1% formic acid (FA, v/v) and the concentration was measured according to BCA assay.
# About 2 μg samples were analyzed by orbitrap Fusion Lumos MS coupled online to an EASY-nLC 1200 system with a data-independent acquisition mode (DIA). The mobile phase used for the liquid chromatography consisted of buffer A (0.1% FA) and buffer B (80% acetonitrile, 0.1% FA). The peptides were separated using a 160-min nonlinear gradient consisting of 4–35% buffer B for 85 min, 35–100% buffer B for 60 min and 100% buffer B for 15 min at a flow rate of 300 nL min^−1. The acquired DIA data were analyzed by DIA-NN software against the protein database of P. aeruginosa PA14. Data processing was conducted using the software Perseus. Student’s t-test was used to assess the significance of differential expression of proteins (DEPs) between two groups. Proteins that have significance level of P < 0.05 and fold change >1.5 or <–1.5 were considered as DEPs.
# [14] = system: CarSR system; details: Vibrio cholerae; cited from earlier work
# Excerpt: (§4) In the field of microbiology and immunology, the interaction between host antimicrobial peptides and pathogenic bacteria has been a subject of extensive research. The success of bacterial infections depends on a delicate balance of signals exchanged between microbes and hosts. Cationic antimicrobial peptides, including defensins such as α-defensins, β-defensins, and cathelicidin LL-37, are crucial components of innate host defense against bacterial infections. Numerous studies have shown that LL-37 acts as a shield between the host and the external environment, preventing bact ...
# [15] = system: virulence sensor kinase CovS; details: group A streptococcus; cited from earlier work
# Excerpt: as §4
# [16] = system: CprRS as well as ParRS system; details: cited from earlier work
# Excerpt: Pseudomonas aeruginosa is a notorious opportunistic pathogen known for its ability to evade host immune defenses, particularly in resisting antimicrobial peptides (AMPs). […] One notable feature is the abundance and diversity of two-component systems (TCS) in P. aeruginosa, which play a crucial role in regulating its response to host and environmental stimuli, including ...
substance,measurement,setting,value
LL-37,Kd,[1],1.41 µM
same,Kd,[2],5.34 µM
same,increase in cprS transcription compared to control without LL-37,[3],2.5 fold
same,increase in cprR transcription compared to control without LL-37,[4],2.2 fold
same,expression of arnBCADTEF operon under LL-37,[5]; WT strain,markedly induced
same,expression of arnBCADTEF operon under LL-37,[5]; ΔcprR and ΔcprS mutants,this induction was not observed
same,expression of pscDEFG operon under LL-37,[6]; WT strain,notably induced
same,expression of pscDEFG operon under LL-37,[6]; mutants,no such induction was observed
same,induction of higB promoter by LL-37,[7]; WT,significant positive induction activity on higB promoter
same,induction of higB promoter by LL-37,[7]; ΔcprR and ΔcprS mutants,markedly reduced
same,increase in higB mRNA levels upon LL-37 treatment,[8]; WT strain,8.79 fold
same,increase in higB mRNA levels upon LL-37 treatment,[8]; ΔcprR mutant,2.12 fold
same,increase in higB mRNA levels upon LL-37 treatment,[8]; ΔcprS mutant,2.74 fold
same,effect of LL-37 stimulation on expression of higA,[9],limited effects on the expression of higA
same,upregulation of T3SS in response to LL-37 stimulation,[10],greatly attenuated
same,cytotoxicity of LL-37-treated WT strains compared to untreated group,[11],increased cytotoxicity
same,effect of LL-37 pretreatment on inhibition of pro-inflammatory cytokines,[12]; macrophages infected with WT strain pretreated with LL-37,enhanced the ability of the WT strain to effectively inhibit the activation of pro-inflammatory cytokines
same,effect of LL-37 pretreatment on inhibition of pro-inflammatory cytokines,[12]; macrophages infected with ΔcprS and ΔcprR strains,largely absent
same,expression of virulence proteins in ΔcprS upon stimulation with LL-37,[13],significant decrease in the expression of several proteins directly involved in virulence processes
same,sensing by CarSR,[14],sense human enteric α-defensin 5 and LL-37 to promote bacterial pathogenicity
same,activation of CovS,[15],activated by LL-37
dynorphin,stimulation of CprRS as well as ParRS by dynorphin,[16],increased virulence factor production and adaptive resistance
